# Patent US4508711A, “Cyclic pentapeptide displaying somatostatin antagonism and method of treatment of mammals therewith” (American Cyanamid Company, priority 1984, dated 1985)
# Legend:
# [1] = system: GH levels in the rat; assay: Growth hormone (GH) levels in NEMBUTAL-anesthetized, stimulated rats (RIA); type: in vivo; conditions: mean ± SE
# Procedure: (§1) In this evaluation the procedures described by W. A. Murphy et al. Endocrinology 109:491-495 (1980), were employed.
# In growth hormone (GH) experiments, male rats (Charles Rivers) were anesthetized with NEMBUTAL® (5 mg per 100 g/BW) which also served to maintain stimulated plasma GH levels. Exactly 30 minutes after the rats were anesthetized, 0.5 mL of saline or the test peptide in saline was administered as a sc bolus. A 1 mL blood sample was drawn from the jugular vein 15 minutes after the injection. For examining blocking effects of the analog on somatostatin, the cyclic peptide was given 5 minutes prior to somatostatin. GH levels were determined using NIADDKD rat GH RIA components.
# [2] = system: insulin levels in hepatic portal blood; assay: Insulin levels in hepatic portal blood of fasted rats (RIA); type: in vivo, rat
# Procedure: as §1
# (§2) For measurement of effects on insulin and glucagon levels, rats were fasted 27-30 hours and anesthetized with NEMBUTAL® (5 mg per 100 g body wt). Exactly 21 minutes after NEMBUTAL® injection 0.5 mL of saline or saline containing test peptide was injected into the jugular vein over a 1 minute period. Five minutes later, 3.5 mL of blood were quickly drawn from the hepatic portal vein after rapid laparotomy. Blocking effects of analog on exogenous somatostatin were examined by simultaneous injection of both peptides. Plasma insulin levels were determined using matched insulin RIA kits purchased from Cambridge Nuclear, Billerica, MA. Plasma glucagon was determined using Unger 30K antibody and ^125 I-glucagon (Cambridge Nuclear) as the tracer.
# [3] = system: glucagon levels in hepatic portal blood; assay: Glucagon levels in hepatic portal blood of fasted rats (RIA); type: in vivo, rat
# Procedure: as §1, §2
smiles,measurement,setting,value
C[C@H](N)C(=O)NCC(=O)N[C@H]1CSSC[C@@H](C(=O)O)NC(=O)[C@H](CO)NC(=O)[C@H]([C@@H](C)O)NC(=O)[C@H](Cc2ccccc2)NC(=O)[C@H]([C@@H](C)O)NC(=O)[C@H](CCCCN)NC(=O)[C@H](Cc2c[nH]c3ccccc23)NC(=O)[C@H](Cc2ccccc2)NC(=O)[C@H](Cc2ccccc2)NC(=O)[C@H](CC(N)=O)NC(=O)[C@H](CCCCN)NC1=O [Somatostatin],GH,"[1]; Table I Experiment 1, fed rats, 0.2 μg/100 g body weight sc, blood 15 min after injection, saline 277 ± 40",146 ± 14 ng/mL
same,GH,"[1]; Table I Experiment 1, fed rats, 0.6 μg/100 g body weight sc, blood 15 min after injection, saline 277 ± 40",78 ± 26 ng/mL
same,GH,"[1]; Table I Experiment 2, fasted rats, 0.4 μg/100 g body weight, saline 403 ± 85",107 ± 13 ng/mL
same,Insulin (Mean ± SE),"[2]; Table III Experiment 1, fasted rats, 0.4 μg/100 g iv, portal blood 5 min later, saline 67 ± 11",57 ± 3 μU/mL
same,Insulin (Mean ± SE),"[2]; Table III Experiment 1, fasted rats, 2.0 μg/100 g iv, saline 67 ± 11",28 ± 11 μU/mL
same,Insulin (Mean ± SE),"[2]; Table III Experiment 1, second saline set, fasted rats, 1.0 μg/100 g iv, saline 46 ± 5",11 ± 2 μU/mL
same,Glucagon (Mean ± SE),"[3]; Table III Experiment 1, fasted rats, 0.4 μg/100 g iv, portal blood 5 min later, saline 80 ± 5",64 ± 3 pg/mL
same,Glucagon (Mean ± SE),"[3]; Table III Experiment 1, fasted rats, 2.0 μg/100 g iv, saline 80 ± 5",46 ± 4 pg/mL
same,Glucagon (Mean ± SE),"[3]; Table III Experiment 1, second saline set, fasted rats, 1.0 μg/100 g iv, saline 94 ± 9",78 ± 7 pg/mL
same,Glucagon (Mean ± SE),"[3]; Table III Experiment 2, fasted rats, 1.0 μg/100 g iv, saline 45 ± 3",18 ± 7 pg/mL
